Test results as given in patent US20240059703A1 (AMGEN INC., priority 2021, published 2024).
Read-outs that look alike come from different tables or passages of the source.

How the values were obtained:
[1] = system: MIA PaCa-2 (human pancreatic carcinoma) cells; experiment: Cell Viability Assay (CellTiter-Glo), MIA PaCa-2; type: cell-based
Experimental: Serially-diluted compound or DMSO was added to the cells, and plates were incubated at 37° C., 5% CO2 for 72 h. Cell viability was measured using a CellTiter-Glo® Luminescent Cell Viability Assay kit (Promega) according to the manufacturer's protocol. The luminescence signal of treated samples was normalized to DMSO control, and data were analyzed using a 4-parameter logistic model to calculate IC50 values.

KRAS G12C = KRAS G12C (Homo sapiens (Human), UniProt P01116, C118A/G12C); experiment: 2 h coupled exchange assay; type: biochemical
Experimental: The term “2 h coupled exchange assay” or “20 h coupled exchange assay” as used herein refers to the assay described in the Section entitled “BIOLOGICAL EVALUATION.”

[2] = system: A549 (human lung carcinoma) cells; experiment: Cell Viability Assay (CellTiter-Glo), A549; type: cell-based
Summary of the method: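 Luminescent ATP read-out (CellTiter-Glo) after 72 h compound treatment of cells seeded overnight at 1.67E+04 cells/mL in RPMI 1640, 10% FBS; signal relative to DMSO, IC50 by 4-parameter logistic model.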

[3] = Avg 2 h Coupled exchange IC50, 2 h compound pre-incubation, SOS-mediated nucleotide exchange
[4] = Avg 2 h Coupled exchange IC50, 2 h compound pre-incubation

Sequence of KRAS G12C (P01116 other isoform, or with tags, fused parts or gaps G12C/C118A): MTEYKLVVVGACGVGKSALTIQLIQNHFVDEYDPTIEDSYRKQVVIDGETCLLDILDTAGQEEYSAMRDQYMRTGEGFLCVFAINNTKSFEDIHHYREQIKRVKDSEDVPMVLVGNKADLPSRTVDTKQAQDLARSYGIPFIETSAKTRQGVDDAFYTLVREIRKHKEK

| Compound | IC50 ([1]; Homo sapiens, MIA PaCa-2, 72 h) [nM] | IC50 (KRAS G12C; [3]) [nM] | IC50 ([2]; Homo sapiens, A549, 72 h) [nM] | IC50 (KRAS G12C; [4]) [nM] | IC50 ([1]; 72 h) [nM] | IC50 ([2]; 72 h) [nM] | IC50 (KRAS G12C; read-out: Avg 2 h Coupled exchange IC50, 2 h compound pre-incubation) [nM] |
| --- | --- | --- | --- | --- | --- | --- | --- |
| C=CC(=O)N1CC2(CCN(c3nc4c(c(-c5cccc6cc(O)ccc56)c3C)CCN(C3CC3)C4)C2)C1 [Example 18-17, 1-(6-(7-cyclopropropyl-4-(6-hydroxy-1-naphthalenyl)-3-methyl-5,6,7,8-tetrahydro-1,7-naphthyridin-2-yl)-2,6-diazaspiro[3.4]octan-2-yl)-2-propen-1-one] | 133 |  | > 5000 | 79 |  |  |  |
| C=CC(=O)N1CC2(CCN(c3nc4c(c(-c5cccc6cc(O)ccc56)n3)CCCC4)C2)C1 [Example 1-21, 1-(6-(4-(6-hydroxy-1-naphthalenyl)-5,6,7,8-tetrahydro-2-quinazolinyl)-2,6-diazaspiro[3.4]octan-2-yl)-2-propen-1-one] | > 5000 | 435 | > 5000 |  |  |  |  |
| C=CC(=O)N1CC2(CCN(c3nc(-c4c(C)ccc5[nH]ncc45)c4c(n3)C(C)CCC4)C2)C1 (stereo not drawn) [Example 1-15, 1-(6-((8)-8-methyl-4-(5-methyl-1H-indazol-4-yl)-5,6,7,8-tetrahydro-2-quinazolinyl)-2,6-diazaspiro[3.4]octan-2-yl)-2-propen-1-one] | > 5000 | 9060 | > 5000 |  |  |  |  |
| C=CC(=O)N1CC2(CCN(c3nc4c(N5CCCC5)ccn4c(-c4c(C)ccc5[nH]ncc45)c3C#N)C2)C1 [Example 1-52] | 1890 | 244 | 39000 |  |  |  |  |
| C=CC(=O)N1CC2(CCN(c3nc4c(c(-c5cccc6cc(O)ccc56)c3C)COC(C)(C)C4)C2)C1 [Example 14-43, 1-(6-(4-(6-hydroxy-1-naphthalenyl)-3,7,7-trimethyl-7,8-dihydro-5H-pyrano[4,3-b]pyridin-2-yl)-2,6-diazaspiro[3.4]octan-2-yl)-2-propen-1-one] | 136 |  | > 5000 | 110 |  |  |  |
| C=CC(=O)N1CC2(CCN(c3nc4c(c(-c5cccc6cccc(C)c56)n3)CCC(C)(C)C4)C2)C1 [Example 1-30, 1-(6-(7,7-dimethyl-4-(8-methyl-1-naphthalenyl)-5,6,7,8-tetrahydro-2-quinazolinyl)-2,6-diazaspiro[3.4]octan-2-yl)-2-propen-1-one] | > 5000 | 3460 | 10300 |  |  |  |  |
| C=CC(=O)N1CC2(CCN(c3nc4c(c(-c5c(C)ccc6[nH]ncc56)c3C#N)CCC(C)(C)C4)[C@@H]2CF)C1 (stereo in doubt) [Example 13-79, (M)-2-((5R)-5-(fluoromethyl)-2-(2-propenoyl)-2,6-diazaspiro[3.4]octan-6-yl)-7,7-dimethyl-4-(5-methyl-1H-indaazol-4-yl)-5,6,7,8-tetrahydro-3-quinolinecarbonitrile and (P)-((5S)-5-(fluoromethyl)-2-(2-propenoyl)-2,6-diazaspiro[3.4]octan-6-yl)-7,7-dimethyl-4-(5-methyl-1H-indazol-4-yl)-5,6,7,8-tetrahydro-3-quinolinecarbonitrile] | 8240 | 433 | 7450 |  |  |  |  |
| C=CC(=O)N1CC2(CCN(c3nc4ccccc4c(-c4c(C)ccc5[nH]ncc45)c3C=C)C2)C1 (atropisomer, axis not shown; (P)) [Example 26-1, (P)-1-(6-(3-ethenyl-4-(5-methyl-1H-indazol-4-yl)-2-quinolinyl)-2,6-diazaspiro[3.4]octan-2-yl)-2-propen-1-one] |  |  |  |  | 919 | > 5000 | 140 |

The next lines start with the values.

| IC50 ([1]; Homo sapiens, MIA PaCa-2, 72 h) [nM] | IC50 (KRAS G12C; [3]) [nM] | IC50 ([2]; Homo sapiens, A549, 72 h) [nM] | IC50 (KRAS G12C; [4]) [nM] | IC50 ([1]; 72 h) [nM] | IC50 ([2]; 72 h) [nM] | IC50 (KRAS G12C; read-out: Avg 2 h Coupled exchange IC50, 2 h compound pre-incubation) [nM] | Compound |
| --- | --- | --- | --- | --- | --- | --- | --- |
| 175 | 28 | > 5000 |  |  |  |  | C=CC(=O)N1CC2(CCN(c3nc4c(c(-c5cc(O)cc6ncccc56)c3C#N)C[C@H]3C[C@@H]4C3(C)C)C2)C1 [Example 2-42, (1R,9R)-6-(7-hydroxy-5-quinolinyl)-10,10-dimethyl-4-(2-(2-propenoyl)-2,6-diazaspiro[3,4]octan-6-yl)-3-azatricyclo[7.1.1.0^2,7]undeca-2,4,6-triene-5-carbonitrile] |
|  |  |  | 3260 | 7400 | 13400 |  | C=CC(=O)N1CC2(CCN(c3nc4c(c(-c5cc(O)ccc5Cl)c3C#N)CCN(c3scnc3C)C4)C2)C1 (single isomer, unassigned) [Example 21-25, (M)-4-(2-chloro-5-hydroxyphenyl)-7-(4-methyl-1,3-thiazol-5-yl)-2-(2-(2-propenoyl)-2,6-diazaspiro[3.4]octan-6-yl)-5,6,7,8-tetrahydro-1,7-naphthyridine-3-carbonitrile] |
| 47 |  | 14000 | 24 |  |  |  | C=CC(=O)N1CC2(CCN(c3nc4c(c(-c5ncccc5F)c3C#N)CC[C@H](c3scnc3C)C4)C2)C1 [Example 23-60, (7S)-4-(3-fluoro-2-pyridinyl)-7-(4-methyl-1,3-thiazol-5-yl)-2-(2-(2-propenoyl)-2,6-diazaspiro[3.4]octan-6-yl)-5,6,7,8-tetrahydro-3-quinolinecarbonitrile] |
| 63 | 24 | 2910 |  |  |  |  | C=CC(=O)N1CC2(CCN(c3nc4c(c(-c5cc(O)cc6ccccc56)c3C#N)C[C@H]3C[C@@H]4C3(C)C)C2)C1 [Example 13-108, (1R,9R)-6-(3-hydroxy-1-naphthalenyl)-10,10-dimethyl-4-(2-(2-propenoyl)-2,6-diazaspiro[3.4]octan-6-yl)-3-azatricyclo[7.1.1.0^2,7]undeca-2,4,6-triene-5-carbonitrile] |
| 20 | 36 | 3780 |  |  |  |  | C=CC(=O)N1CC2(CCN(c3nc4c(c(-c5c(C)cc(F)c6[nH]ncc56)c3C#N)C[C@H]3C[C@@H]4C3(C)C)C2)C1 [Example 12-11, (1R,9R)-6-(7-fluoro-5-methyl-1H-indazol-4-yl)-10,10-dimethyl-4-(2-(2-propenoyl)-2,6-diazaspiro[3.4]octan-6-yl)-3-azatricyclo[7.1.1.0^2,7] undeca-2,4,6-triene-5-carbonitrile] |
| 2400 |  | 21000 | 840 |  |  |  | C=CC(=O)N1CC2(CCN(c3nc4c(c(-c5c(O)cccc5Cl)c3C#N)COC(c3scnc3C)C4)C2)C1 [Example 23-35, (7R)-4-(2-chloro-6-hydroxyphenyl)-7-(4-methyl-1,3-thiazol-5-yl)-2-(2-(2-propenoyl)-2,6-diazaspiro[3.4]octan-6-yl)-7,8-dihydro-5H-pyrano[4,3-b]pyridine-3-carbonitrile (7S)-4-(2-chloro-6-hydroxyphenyl)-7-(4-methyl-1,3-thiazol-5-yl)-2-(2-(2-propenoyl)-2,6-diazaspiro[3.4]octan-6-yl)-7,8-dihydro-5H-pyrano[4,3-b]pyridine-3-carbonitrile] |
| 1940 | 228 | > 5000 |  |  |  |  | C=CC(=O)N1CC2(CCN(c3nc4c(c(-c5c(F)cccc5CO)c3C#N)C[C@H]3C[C@@H]4C3(C)C)C2)C1 [Example 2-73, (1R,9R)-6-(2-fluoro-6-(hydroxymethyl)phenyl)-10,10-dimethyl-4-(2-(2-propenoyl)-2,6-diazaspiro[3.4]octan-6-yl)-3-azatricyclo[7.1.1.0^2,7]undeca-2,4,6-triene-5-carbonitrile] |
| 670 |  | > 5000 | 197 |  |  |  | C=CC(=O)N1CC2(CCN(c3nc4c(c(-c5ncccc5F)c3C#N)CCC(c3scnc3C)=C4)C2)C1 [Example 23-49, 4-(3-fluoro-2-pyridinyl)-7-(4-methyl-1,3-thiazol-5-yl)-2-(2-(2-propenoyl)-2,6-diazaspiro[3.4]octan-6-yl)-5,6-dihydro-3-quinolinecarbonitrile] |
